# Legend:
# [1] = tested on: free radicals generated by xanthine oxidase (XO) on xanthine; assay: Scavenging of free radicals generated by xanthine oxidase on xanthine (ferricytochrome C reduction); format: biochemical
# Description: Since recent studies indicate that the superoxide radical is the active form of oxygen in the prolyl and lysyl hydrolyase reactions during collagen synthesis, this example assesses the effects that compositions of the invention have on free radicals.
# Free radicals are generated in vitro by the action of xanthine oxidase (XO) on xanthine. The generation of free radicals is monitored by the reduction of ferricytochrome C by the system. The action of chlorine dioxide is compared with the scavenging action of the well known free radical scavengers superoxide dismutase (SOD) and catalase.
# The experiments are divided into three groups. In the first group, 50 μmoles of xanthine, 0.0217 units/mg XO, 0.1 mM EDTA are mixed in a total volume of 1.0 ml Hank's Balanced Salt Solution (HBSS). This generated 64 ±8 nmoles oxygen. In the second group, 0.3125 units/mg SOD and 1,300 units catalase are added to the reagents employed in group 1; this yields 19.4 nmoles oxygen. […] In the third group, chlorine dioxide is substituted for the SOD and catalase in the same system; a chlorine dioxide concentration of about 7.5 ppm inhibits free radical formation by 74% and at a concentration of 15 ppm, by 100%.
# [2] = tested on: Staphylococcus epidermidis biofilms; assay: Sterilization of S. epidermidis biofilms, minimal exposure time at 22° C. (supravital dye, confirmed by culture); format: cell-based; conditions: 22° C.
# Description: This example compares and contrasts the cidal effectiveness of compositions of the invention with other disinfectants and antibiotics against Staphylococcus epidermidis biofilms, which are frequently observed on the surface of C.A.P.D. peritoneal catheters even in the absence of peritonitis or exit site infections.
# A strain of S. epidermidis with characteristic abundant slime production, and derived from a human source, is used to prepare the biofilms. The isolate is fully sensitive in the fluid phase to all commonly used antibiotics as assayed using routine test methods. Aliquots of the bacteria are frozen at -70° C. in 10% glycerol broth or propagated on 5% defibrinated horse blood agar. Standardized biofilms are formed on soda glass microscope slides or slides coated with Silastic® (the basic material of indwelling catheters; see Cecil's, cited above, on page 542), placed in Petri dishes containing 20 ml of tryptone soya broth (Oxoid Ltd., England), seeded with 10^4 cfu S. epidermidis and incubated for 18 hours at 37° C. Reproducible uniform and confluent S. epidermidis biofilms of minimal density are formed.
# Antibiotic activity against S. epidermidis biofilms are determined using a supravital dye which acts as an electron acceptor in coupled oxidative systems in biofilm bacteria. The method allows the bacteria to be examined undisturbed within the biofilm matrix in situ. Briefly stated, the biofilms are exposed to antibiotic solutions and incubated at […] for varying periods of time. Positive (viable, 1% peptone water) and negative (sterilized, 4% formol-peptone) controls are included in all experiments. After a designated exposure at 22° C. for varying periods of time between 15 seconds to 6 hours, the biofilms are rinsed twice in sterile water and allowed to drain. They are then placed in a flat agar medium incorporating substantive dyes and incubated at 37° C. for 4 hours, then 24 hours. Viability is assessed visually by a change in dye color and confirmed after 24 hours by mechanically scraping and subsequently culturing the biofilms. Sterilization is indicated by the absence of color changes and confirmed by culture of both intact and mechanically fragmented biofilms. Inhibition of growth is indicated by a lack of color change after a 4-hour incubation and confirmed by a positive color change by 24 hours.
# peritoneal cavity = conditions: infused into the peritoneal cavity and other body cavities; per Ser. No. 08/133,465 and U.S. Pat. No. 5,252,343; cited from earlier work
# [3] = tested on: Escherichia coli and other coliforms; assay: Cidal activity of 50 ppm ClO2; format: cell-based; conditions: within one minute
# Description: (§1) This invention provides a quick-acting, broad-spectrum antimicrobial, that is not absorbed systemically because it is rapidly eliminated or degraded. The inventive compositions have the requisite, extended range of antimicrobial action, rapidity of kill and degradability for this application. […] ClO2 reacts with oxidizable bonds of these organisms and other organic matter and, as a result, is reduced to lower oxidation states: initially chlorite and ultimately chloride. The latter is present at high levels in the body (ca. 0.5% of cellular fluids), so that the small amount formed by ClO2 degradation (in the parts per million range) would disappear into that pool. Compatability of these disinfecting peritoneal flush solutions is also appropriate, since the ClO2 is generated or dissolved in solutions which have osmotic pressures that are suitably isotonic with cellular fluids.
# Pseudomonas aeruginosa = assay: Cidal activity of 50 ppm ClO2; format: cell-based; conditions: within one minute
# Description: as §1
# Bacteroides species = assay: Cidal activity of 50 ppm ClO2; format: cell-based; conditions: within one minute
# Description: as §1
# Streptococcus species = assay: Cidal activity of 50 ppm ClO2; format: cell-based; conditions: within one minute
# Description: as §1
# Klebsiella pneumoniae = assay: Cidal activity of 50 ppm ClO2; format: cell-based; conditions: within one minute
# Description: as §1
# Staphylococcus species = assay: Cidal activity of 50 ppm ClO2; format: cell-based; conditions: within one minute
# Description: as §1
# mammalian tissue = assay: Tolerance by mammalian tissue (eye irrigant, udder infusion, uterine douche); format: in vivo, rabbits, cow, mares; conditions: 50 ppm
# Description: The materials in the table which are as effective as the 50 ppm ClO2 solution are ones that would be considered to be too irritating and/or corrosive for use as an irrigant in a peritoneal cavity.
# [4] = tested on: lactobacilli, streptococci, coliforms, Klebsiella species, Enterobacter species, Bacteroides species, clostridia and eubacteria; assay: Broad-spectrum antimicrobial activity; format: cell-based; conditions: aerobic and anaerobic
# Description: In one embodiment, the present invention is directed to the use of effective amounts of chlorine dioxide as a peritoneal cavity irrigant. The enteric organisms which enter the peritoneal cavity through contamination by gastrointestinal contact, whether by physical trauma or during surgery, are all susceptible to the cidal effects of chlorine dioxide, which is a broad-spectrum antimicrobial. […] However, as mentioned in the Introduction, addition of antibiotics to the irrigating solution has not provided any additional benefit (Hau and Nishikawa, cited above), and it is presumed that the peritoneal irrigation derives from its mechanical effect. The ineffectivenss of local antibiotic solutions has been surprising to researchers, since the antibiotics that have been used were capable of in vitro inhibition of the bacterial species present in the peritoneal cavity. It may be that the lack of effect was attributable to the brevity of contact of the antibiotic with the organisms, since usual flush times approximate five minutes or less in duration, which would be too short for significant cidal action to occur.
smiles,measurement,setting,value
"[O][Cl+][O-] [ClO2, chlorine dioxide]",inhibition of free radical formation,[1]; 15 ppm chlorine dioxide,100%
same,inhibition of free radical formation,[1]; about 7.5 ppm chlorine dioxide,74%
same,inhibition of free radical formation,[1]; in words,neutralize the superoxide and related radicals
same,Exposure Time (22° C.) for Film Sterilization,[2],5 s
same,inflammatory response on infusion,peritoneal cavity,without evoking the inflammatory response
same,kill,[3],6 logs/ml
same,kill,Pseudomonas aeruginosa,6 logs/ml
same,kill,Bacteroides species,6 logs/ml
same,kill,Streptococcus species,6 logs/ml
same,kill,Klebsiella pneumoniae,6 logs/ml
same,kill,Staphylococcus species,6 logs/ml
same,tolerance by mammalian tissue,mammalian tissue,well tolerated by mammalian tissue
same,demonstrated activity against organisms,[4],"demonstrated activity against all relevant organisms, both aerobic and anaerobic"

# Reference: patent US5622725A, “Wound disinfection and repair” (Alcide Corporation, priority 1996, dated 1997)
